Results on one compound are retold here after patent EP0656422A1, “Cat assay” (priority 1993, dated 1995).

The assay addresses Chloramphenicol Acetyl Transferase (CAT) (Escherichia coli, UniProt P62577). Briefly: Acetylation by CAT with ¹⁴C acetyl coenzyme A, TLC and autoradiography. The class given is biochemical. The following applies: analogue 2 mM stock 80 µl, CAT enzyme 3.75 units, ¹⁴C acetyl coenzyme A 0.1 µCi, 37°C for 90 minutes; no band in no enzyme control. Here is the method: Biotinylated chloramphenicol analogue (compound 2) was dissolved to a concentration of 2 mmolar in 50% methanol. ¹⁴C acetyl coenzyme A (50 µCi/ml, […]) was obtained commercially.
In a microcentrifuge tube were mixed Tris/HCl (1M, pH 7.8) 7.5 µl, biotinylated chloramphenicol analogue (2 mM) 80 µl, CAT enzyme 3.75 units and ¹⁴C acetyl coenzyme A 2 µl (0.1 µCi). The mix was incubated at 37°C for 90 minutes. A control reaction which contained no enzyme was performed in parallel. 20 µl of each reaction was spotted on to a cellulose TLC plate which was developed in 95/5 chloroform methanol. The TLC plate was exposed to autoradiographic film.
The lane corresponding to the reaction to which enzyme was added contains a spot which migrated under the influence of the solvent. This band is acetylated, biotinylated chloramphenicol analogue. No corresponding band is visible in the no enzyme control.

Each structure is given as a SMILES string.

Chain of Chloramphenicol Acetyl Transferase (CAT) (P62577 whole entry, looked up): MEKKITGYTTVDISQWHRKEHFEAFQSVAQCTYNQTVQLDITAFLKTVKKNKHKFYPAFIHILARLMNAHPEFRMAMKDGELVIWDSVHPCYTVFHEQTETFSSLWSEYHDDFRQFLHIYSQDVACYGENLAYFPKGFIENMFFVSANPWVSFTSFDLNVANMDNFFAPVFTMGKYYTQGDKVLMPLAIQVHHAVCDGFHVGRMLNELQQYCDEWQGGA

In the case of `CC(=O)N[C@H](CO)[C@H](O)c1ccc(NC(=O)CCCCCNC(=O)CCCC[C@@H]2SC[C@@H]3NC(=O)N[C@@H]32)cc1` [Compound 2, 6-biotinylamino-N[4-(N-acetyl-1-(2-amino-1,3-propandiol))phenyl]hexamide], the “substrate of CAT (acetylated product band on TLC)” value is on record as “is a substrate of CAT”.
